Source: US10633353B2, “Polymerizable compound, composition, polymer, optically anisotropic body, liquid crystal display element, and organic EL display” (DIC Corporation, priority 2014, dated 2020)

Test: Preservation stability of the coating liquid
Assay type: physicochemical
Outline: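 Coating liquid stored 2 months at 0° C shielded from light, then graded A–E. Grades rest on visual appearance, change in composition by GPC, and weight ratio of insoluble components to total solids.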

[1] = coating liquid stored for 2 months shielded from light at 0° C., appearance and GPC

| SMILES | Preservation stability [1] | Preservation stability (summary in words) |
| --- | --- | --- |
| C=CC(=O)OCCCCOC(=O)C1CCC(C(=O)OC2CCC(C(=O)Oc3ccc(OC(=O)C4CCC(OC(=O)C5CCC(C(=O)OCCCCOC(=O)C=C)CC5)CC4)c(/C=N/N(CC)c4nc5ccccc5s4)c3)CC2)CC1 (stereo not shown) [1-f-102] | A (No visual change in the appearance of the coating liquid was confirmed. A GPC analysis of the coating liquid confirmed that the change in the composition of the coating liquid was 1% or less.) |  |
| C=CC(=O)OCCCCOC(=O)C1CCC(C(=O)OC2CCC(C(=O)Oc3ccc(OC(=O)C4CCC(OC(=O)C5CCC(C(=O)OCCCCOC(=O)C=C)CC5)CC4)c(/C=N/N(C)c4nc5ccccc5s4)c3)CC2)CC1 (stereo not shown) [1-f-103] | A (No visual change in the appearance of the coating liquid was confirmed. A GPC analysis of the coating liquid confirmed that the change in the composition of the coating liquid was 1% or less.) |  |
| C=CC(=O)Oc1ccc(C(=O)Oc2ccc(OC(=O)c3ccc(OC(=O)C=C)cc3)c(/C=N/Nc3nc4ccccc4s3)c2)cc1 [1-g-35] | B (No visual change in the appearance of the coating liquid was confirmed. A GPC analysis of the coating liquid confirmed that the change in the composition of the coating liquid was 2% or less.) |  |
| C=CC(=O)OCCCCCCOc1ccc(C(=O)Oc2ccc(-c3ccc(OC(=O)c4ccc(OCCCCCCOC(=O)C=C)cc4)c(/C=N/Nc4nc5ccccc5s4)c3)cc2)cc1 [1-hk-84] | A (No visual change in the appearance of the coating liquid was confirmed. A GPC analysis of the coating liquid confirmed that the change in the composition of the coating liquid was 1% or less.) | high |
| C=CC(=O)OCCCCCCOc1ccc(C(=O)Oc2ccc(-c3ccc(OC(=O)c4ccc(OCCCCCCOC(=O)C=C)cc4)cc3/C=N/Nc3nc4ccccc4s3)cc2)cc1 [1-hk-85] | A (No visual change in the appearance of the coating liquid was confirmed. A GPC analysis of the coating liquid confirmed that the change in the composition of the coating liquid was 1% or less.) | high |
| C=CC(=O)OCCCCCCOc1ccc(C(=O)Oc2ccc(-c3ccc(OC(=O)c4ccc(OCCCCCCOC(=O)C=C)cc4)cc3C=NN=C3c4ccccc4-c4ccccc43)cc2)cc1 [1-hk-86] | A (No visual change in the appearance of the coating liquid was confirmed. A GPC analysis of the coating liquid confirmed that the change in the composition of the coating liquid was 1% or less.) | high |
| C=CC(=O)OCCCOC(=O)/C=C/c1ccc(C(=O)Oc2ccc(OC(=O)c3ccc(/C=C/C(=O)OCCCOC(=O)C=C)cc3OC)c(/C=N/Nc3nc4ccccc4s3)c2)c(OC)c1 [1-j-57] | B (No visual change in the appearance of the coating liquid was confirmed. A GPC analysis of the coating liquid confirmed that the change in the composition of the coating liquid was 2% or less.) |  |
| C=CC(=O)OCCCOC(=O)/C=C/c1ccc(C(=O)Oc2ccc(OC(=O)c3ccc(/C=C/C(=O)OCCCOC(=O)C=C)cc3)c(/C=N/Nc3nc4ccccc4s3)c2)cc1 [1-j-61] | B (No visual change in the appearance of the coating liquid was confirmed. A GPC analysis of the coating liquid confirmed that the change in the composition of the coating liquid was 2% or less.) |  |
| C=CC(=O)OCCCCCCOC(=O)/C=C/c1ccc(C(=O)Oc2ccc(OC(=O)c3ccc(/C=C/C(=O)OCCCCCCOC(=O)C=C)cc3)c(/C=N/Nc3nc4ccccc4s3)c2)cc1 [1-j-62] | B (No visual change in the appearance of the coating liquid was confirmed. A GPC analysis of the coating liquid confirmed that the change in the composition of the coating liquid was 2% or less.) |  |
| C=CC(=O)OCCCCOC(=O)/C=C/c1ccc(C(=O)Oc2ccc(OC(=O)c3ccc(/C=C/C(=O)OCCCCOC(=O)C=C)cc3)c(/C=N/N(c3ccccc3)c3ccccc3)c2)cc1 [1-j-64] | B (No visual change in the appearance of the coating liquid was confirmed. A GPC analysis of the coating liquid confirmed that the change in the composition of the coating liquid was 2% or less.) |  |
